# Reference: patent publication US20120264685A1 (priority 2009, published 2012)
# Where a SMILES comes first, the peptide text is derived from it. [ ]: non-standard residue; d: D form. ξ: configuration not given here. ξαMeBip(2'-Et,4'-OMe) = CCc1cc(OC)ccc1-c1ccc(CC(C)(N)C(=O)O)cc1; ξBip(2'-Et-4'-OMe) = CCc1cc(OC)ccc1-c1ccc(CC(N)C(=O)O)cc1; ξαMePhe(2,6-F2) = CC(N)(Cc1c(F)cccc1F)C(=O)O; ξαMe(hhPhe) = CC(N)(CCCc1ccccc1)C(=O)O; ξαMePhe(2-F) = CC(N)(Cc1ccccc1F)C(=O)O; ξhhPhe = NC(CCCc1ccccc1)C(=O)O; ξαMeD = CC(N)(CC(=O)O)C(=O)O; ξαMeP = CC1(C(=O)O)CCCN1; Ac5c = NC1(C(=O)O)CCCC1; ξαMeS = CC(N)(CO)C(=O)O; Ac3c = NC1(C(=O)O)CC1; Aib = CC(C)(N)C(=O)O
# Tested on: RIN5F (Rat Insulinoma) cells
# Assay: In vitro glucose-dependent insulin secretion (RIN5F cell assay)
# Format: cell-based
# Conditions: 16.7-mM glucose load, n = 3, mean ± S.D.
# Protocol: RIN5F (Rat Insulinoma) cells were cultured in RPMI 1640 medium supplemented with sodium pyruvate (1 mM) HEPES and Glucose (4.5 g/L) in a humidified incubator (5% CO2), at 37° C. After trypsinization, RIN5F cells were seeded at a concentration of 0.2×10^6 cells per well, in 12 well plates. The cells were grown overnight to 80% confluence and insulin secretion experiments were performed as follows (Montrose-Rafizadeh C., et al., Mol. Cell. Endo. 1997, 130, 109.; Wang, X., et al., Endocrinology 2001, 5, 1820).
# The cells were washed once with PBS solution followed by 40 min. incubation in fresh Krebs-Ringer Balanced Buffer containing NaCl (115 mmol/L), KCl (4.7 mmol/L), CaCl2 (1.28 mmol/L), MgSO4.7H2O (1.2 mmol/L), KH2PO4 (1.2 mmol/L), NaHCO3 (10 mmol/L) and HEPES (25 mmol/L), containing Glucose (1.1 mM) and B.S.A (0.5%), pH 7.4. The buffer was replaced after 40 min. and the cells were incubated (37° C.) with the test peptidomimetics, at different concentration, for 30 min., both in the presence (16.7 mM) and absence (0 mM) of glucose load. The supernatant was collected and the insulin amount was measured by ultra sensitive Rat insulin ELISA kit (Crystal Chem, IL). The protein was estimated in the supernatant using Bicinchoninic Acid kit, according to the manufacturer's protocol (Sigma Aldrich, MO). The total insulin content obtained in Pico-gram (pg) was divided with the total protein (μg) in order to normalize for differences in cell density between wells.
structure (smiles),measurement,setting,value
"CCc1cc(OC)ccc1-c1ccc(CC(C)(NC(=O)C(C)(CC(=O)O)NC(=O)[C@H](CO)NC(=O)[C@@H](NC(=O)[C@H](Cc2ccccc2)NC(=O)[C@@H](NC(=O)CNC(=O)[C@H](CCC(N)=O)NC(=O)C2(C)CCCN2C(=O)[C@H](Cc2c[nH]cn2)NC(=O)[C@@H](N)C(C)C)[C@@H](C)O)[C@@H](C)O)C(=O)NC(CCCc2ccccc2)C(N)=O)cc1 (stereo partly drawn) [compound 60] (H-VH[ξαMeP]QGTFTS[ξαMeD][ξαMeBip(2'-Et,4'-OMe)][ξhhPhe]-NH2)",Insulin secretion,0.1 nM test compd.,15.6 ± 0.33 pg/µg/h
same,Insulin secretion,1 nM test compd.,21.8 ± 0.16 pg/µg/h
same,Insulin secretion,10 nM test compd.,35.6 ± 0.26 pg/µg/h
"CCc1cc(OC)ccc1-c1ccc(CC(NC(=O)C(C)(CC(=O)O)NC(=O)C(C)(CO)NC(=O)[C@@H](NC(=O)C(C)(Cc2c(F)cccc2F)NC(=O)[C@@H](NC(=O)CNC(=O)[C@H](CCC(=O)O)NC(=O)C2(C)CCCN2C(=O)[C@H](Cc2c[nH]cn2)NC(=O)[C@@H](N)C(C)C)[C@@H](C)O)[C@@H](C)O)C(=O)NC(C)(CCCc2ccccc2)C(N)=O)cc1 (stereo partly drawn) [compound 130] (H-VH[ξαMeP]EGT[ξαMePhe(2,6-F2)]T[ξαMeS][ξαMeD][ξBip(2'-Et-4'-OMe)][ξαMe(hhPhe)]-NH2)",Insulin secretion,0.1 nM test compd.,15.6 ± 0.33 pg/µg/h
same,Insulin secretion,1 nM test compd.,21.8 ± 0.16 pg/µg/h
same,Insulin secretion,10 nM test compd.,35.6 ± 0.26 pg/µg/h
"CCc1cc(OC)ccc1-c1ccc(CC(C)(NC(=O)[C@H](CC(=O)O)NC(=O)C(C)(CO)NC(=O)[C@@H](NC(=O)C(C)(Cc2ccccc2F)NC(=O)[C@@H](NC(=O)CNC(=O)[C@H](CCC(N)=O)NC(=O)C2(C)CCCN2C(=O)[C@H](Cc2c[nH]cn2)NC(=O)[C@@H](N)C(C)C)[C@@H](C)O)[C@@H](C)O)C(=O)NC(C)(CCCc2ccccc2)C(N)=O)cc1 (stereo partly drawn) [compound 168] (H-VH[ξαMeP]QGT[ξαMePhe(2-F)]T[ξαMeS]D[ξαMeBip(2'-Et,4'-OMe)][ξαMe(hhPhe)]-NH2)",Insulin secretion,0.1 nM test compd.,11.9 ± 0.17 pg/µg/h
same,Insulin secretion,1 nM test compd.,14.2 ± 0.13 pg/µg/h
same,Insulin secretion,10 nM test compd.,27.6 ± 0.16 pg/µg/h
"CCc1cc(OC)ccc1-c1ccc(CC(C)(NC(=O)C(C)(CC(=O)O)NC(=O)[C@H](CO)NC(=O)[C@@H](NC(=O)C(C)(Cc2ccccc2F)NC(=O)[C@@H](NC(=O)CNC(=O)[C@H](CCC(N)=O)NC(=O)[C@H](C)NC(=O)[C@H](Cc2c[nH]cn2)NC(=O)[C@@H](N)C(C)C)[C@@H](C)O)[C@@H](C)O)C(=O)NC(CCCc2ccccc2)C(N)=O)cc1 (stereo partly drawn) [compound 66] (H-VHAQGT[ξαMePhe(2-F)]TS[ξαMeD][ξαMeBip(2'-Et,4'-OMe)][ξhhPhe]-NH2)",Insulin secretion,0.1 nM test compd.,16.5 ± 0.12 pg/µg/h
same,Insulin secretion,1 nM test compd.,22.7 ± 0.17 pg/µg/h
same,Insulin secretion,10 nM test compd.,36.5 ± 0.05 pg/µg/h
"CCc1cc(OC)ccc1-c1ccc(CC(C)(NC(=O)[C@H](CC(=O)O)NC(=O)C(C)(CO)NC(=O)[C@@H](NC(=O)C(C)(Cc2c(F)cccc2F)NC(=O)[C@@H](NC(=O)CNC(=O)[C@H](CCC(N)=O)NC(=O)C(C)(C)NC(=O)[C@H](Cc2c[nH]cn2)NC(=O)[C@@H](N)C(C)C)[C@@H](C)O)[C@@H](C)O)C(=O)NC(C)(CCCc2ccccc2)C(N)=O)cc1 (stereo partly drawn) [compound 175] (H-VH[Aib]QGT[ξαMePhe(2,6-F2)]T[ξαMeS]D[ξαMeBip(2'-Et,4'-OMe)][ξαMe(hhPhe)]-NH2)",Insulin secretion,0.1 nM test compd.,12.4 ± 0.22 pg/µg/h
same,Insulin secretion,1 nM test compd.,15.2 ± 0.32 pg/µg/h
same,Insulin secretion,10 nM test compd.,29.6 ± 0.50 pg/µg/h
"CCc1cc(OC)ccc1-c1ccc(CC(C)(NC(=O)C(C)(CC(=O)O)NC(=O)[C@H](CO)NC(=O)[C@@H](NC(=O)C(C)(Cc2c(F)cccc2F)NC(=O)[C@@H](NC(=O)CNC(=O)[C@H](CCC(=O)O)NC(=O)[C@H](C)NC(=O)[C@H](Cc2c[nH]cn2)NC(=O)[C@@H](N)C(C)C)[C@@H](C)O)[C@@H](C)O)C(=O)NC(CCCc2ccccc2)C(N)=O)cc1 (stereo partly drawn) [compound 78] (H-VHAEGT[ξαMePhe(2,6-F2)]TS[ξαMeD][ξαMeBip(2'-Et,4'-OMe)][ξhhPhe]-NH2)",Insulin secretion,0.1 nM test compd.,16.3 ± 0.15 pg/µg/h
same,Insulin secretion,1 nM test compd.,22.4 ± 0.21 pg/µg/h
same,Insulin secretion,10 nM test compd.,36.2 ± 0.11 pg/µg/h
"CCc1cc(OC)ccc1-c1ccc(CC(NC(=O)[C@H](CC(=O)O)NC(=O)[C@H](CO)NC(=O)[C@@H](NC(=O)C(C)(Cc2c(F)cccc2F)NC(=O)[C@@H](NC(=O)CNC(=O)[C@H](CCC(=O)O)NC(=O)[C@H](CO)NC(=O)[C@H](Cc2c[nH]cn2)NC(=O)[C@@H](N)C(C)C)[C@@H](C)O)[C@@H](C)O)C(=O)NC(C)(CCCc2ccccc2)C(N)=O)cc1 (stereo partly drawn) [compound 103] (H-VHSEGT[ξαMePhe(2,6-F2)]TSD[ξBip(2'-Et-4'-OMe)][ξαMe(hhPhe)]-NH2)",Insulin secretion,0.1 nM test compd.,12.3 ± 0.33 pg/µg/h
same,Insulin secretion,1 nM test compd.,14.1 ± 0.36 pg/µg/h
same,Insulin secretion,10 nM test compd.,28.0 ± 0.16 pg/µg/h
CCc1cc(OC)ccc1-c1ccc(CC(NC(=O)[C@H](CC(=O)O)NC(=O)[C@H](CO)NC(=O)[C@@H](NC(=O)[C@H](Cc2ccccc2)NC(=O)[C@@H](NC(=O)CNC(=O)[C@H](CCC(N)=O)NC(=O)C2(NC(=O)[C@H](Cc3c[nH]cn3)NC(=O)[C@@H](N)C(C)C)CCCC2)[C@@H](C)O)[C@@H](C)O)C(=O)NC(C)(CCCc2ccccc2)C(N)=O)cc1 (stereo partly drawn) [compound 85] (H-VH[Ac5c]QGTFTSD[ξBip(2'-Et-4'-OMe)][ξαMe(hhPhe)]-NH2),Insulin secretion,0.1 nM test compd.,12.1 ± 0.52 pg/µg/h
same,Insulin secretion,1 nM test compd.,14.1 ± 0.16 pg/µg/h
same,Insulin secretion,10 nM test compd.,28.0 ± 0.36 pg/µg/h
"CCc1cc(OC)ccc1-c1ccc(CC(C)(NC(=O)[C@H](CC(=O)O)NC(=O)[C@H](CO)NC(=O)[C@@H](NC(=O)[C@H](Cc2ccccc2)NC(=O)[C@@H](NC(=O)CNC(=O)[C@H](CCC(N)=O)NC(=O)C2(NC(=O)[C@H](Cc3c[nH]cn3)NC(=O)[C@@H](N)C(C)C)CC2)[C@@H](C)O)[C@@H](C)O)C(=O)NC(CCCc2ccccc2)C(N)=O)cc1 (stereo partly drawn) [compound 10] (H-VH[Ac3c]QGTFTSD[ξαMeBip(2'-Et,4'-OMe)][ξhhPhe]-NH2)",Insulin secretion,0.1 nM test compd.,12.0 ± 0.14 pg/µg/h
same,Insulin secretion,1 nM test compd.,14.3 ± 0.12 pg/µg/h
same,Insulin secretion,10 nM test compd.,27.8 ± 0.32 pg/µg/h
"CCc1cc(OC)ccc1-c1ccc(CC(C)(NC(=O)[C@H](CC(=O)O)NC(=O)[C@H](CO)NC(=O)[C@@H](NC(=O)[C@H](Cc2ccccc2)NC(=O)[C@@H](NC(=O)CNC(=O)[C@H](CCC(N)=O)NC(=O)[C@H](CO)NC(=O)[C@H](Cc2c[nH]cn2)NC(=O)[C@@H](N)C(C)C)[C@@H](C)O)[C@@H](C)O)C(=O)NC(CCCc2ccccc2)C(N)=O)cc1 (stereo partly drawn) [compound 5] (H-VHSQGTFTSD[ξαMeBip(2'-Et,4'-OMe)][ξhhPhe]-NH2)",Insulin secretion,0.1 nM test compd.,12.1 ± 0.51 pg/µg/h
same,Insulin secretion,1 nM test compd.,14.1 ± 0.19 pg/µg/h
same,Insulin secretion,10 nM test compd.,28.1 ± 0.29 pg/µg/h
